Measured values from US20230381139A1, “METHODS OF TREATING AND/OR PREVENTING ALZHEIMER’S DISEASE WITH R-CARVEDILOL” (priority 2020, published 2023).

How the values were obtained:
Assay type in all cases: in vivo, mouse
[1] = system: hippocampal CA3-CA1 pathway of 5×FAD+/− mice; experiment: Long-term potentiation / fEPSP recording in hippocampal slices from treated 5×FAD+/− mice; conditions: vs DMSO
Protocol: Adult genetically engineered mice, 5×FAD^+/− (Oakley et al., 2006), RyR2-E4872Q^+/− (EQ^+/−) (Chen et al., 2014), 5×FAD^+/−/RyR2-E4872Q^+/− (5×FAD^+/−/EQ^+/−), and wildtype (WT) littermates of both sexes were used. R-carvedilol (R-CV) (at doses of 0.8, 1.6 or 3.2 mg/kg/day), racemic carvedilol (3.2 mg/kg/day), and vehicle control (DMSO) were delivered to 5×FAD^+/− mice in drinking water for one month, starting at different ages before (2-3 months old) or after (3-4 months old) the occurrence of AD pathologies (Oakley et al., 2006). To assess the effects of genetically and pharmacologically limiting RyR2 open time on the prevention and rescue of AD deficits in different stages (early, moderate, and late) of AD progression, animals at different ages (from 2-15 months) were used. […] For 2-photon Ca^2+ imaging experiments, 5×FAD, RyR2 WT, and RyR2 mutant mice were cross-bred with the heterozygous Thy1-GCaMP6f transgenic mice (Chen et al., 2012; Chen et al., 2013) (GP5.17, JAX 025393) to express the GCaMP6f Ca^2+ sensing probe (driven by the Thy1 promotor) in hippocampal neurons in each of the genotypes used.
Schaffer collateral fibers were stimulated at the CA3 subfield to record field excitatory postsynaptic potentials (fEPSPs) in the CA1 stratum radiatum of transverse hippocampal slices ([…]) from all genotypes and drug-treated mice at different ages. After recovering at room temperature for 1 h (or 2 h for brain slices from drug-treated mice), hippocampal slices were allowed to recover in the recording chamber for additional 10 min. To evaluate basal synaptic transmission, different stimulation strengths (0 μA to 200 μA in steps of 20 μA) were applied and plotted fEPSP slopes versus the current input to compare the slope of input/output (I/O) curves of fEPSP. In the experiments that followed, stimulus current was adjusted so that fEPSP stabilized at 40-50% of maximum. Baseline was recorded for at least […] until the differences among fEPSP slopes were within 10%. Long-term potentiation (LTP) was induced using a tetanic high-frequency stimulation (HFS; 4 trains of 100 pulses at 100 Hz, with 20-sec intervals). Synaptic responses were recorded for at least 60 min after tetanization and quantified as the slope of the evoked fEPSP as percentage of the baseline.

[2] = system: Aβ plaques; experiment: Aβ plaques (immunohistochemical staining) in 3×TG+/− mice; conditions: 12-15 months old 3×TG+/− mice, 3.2 mg/kg/day for one month; vs DMSO
Protocol: (§1) Genetically engineered mice of 12-15 months old, 3×TG+/− (Oddo et al., 2003), RyR2-E4872Q+/− (EQ+/−)(Chen et al., 2014), 3×TG+/−/RyR2-E48720+/− (3×TG+/−/EQ+/−), and WT littermates of both sexes were used. Sex differences, which may produce biological variables, were not investigated in this study. R-carvedilol (R-CV) (3.2 mg/kg/day) and vehicle control (DMSO) were delivered to 3×TG+/− mice in drinking water for one month. As shown previously, only heterozygous RyR2-E4872Q+/− mutant mice were produced as homozygous E4872Q+/+mutation is embryonic lethal (Chen et al., 2014). Functional RyR2s are tetrameric channels formed by 4 RyR2 monomers. The heterozygous E4872Q+/− mutant mice (harboring one WT allele and one E4872Q mutant allele) will produce a mixture of homo- and hetero-tetrameric channels that contain the WT, E48720 mutant, or both WT/E4872Q mutant monomers. Thus, the RyR2-E4872Q mutation can exert its negative impact not only on the function of the E4872Q homo-tetramers, but also on the function of the WT monomer in the WT/E4872Q hetero-tetrameric channels.
Mice of different ages and genotypes were anesthetized and transcardially perfused with 10% neutral buffered formalin (NBF). Whole brains were removed and post-fixed in NBF for at least 24 h. The fixed brains were then embedded in paraffin after dehydration and diaphanization. […]

[3] = system: hippocampal CA1 and subiculum neurons of 3×TG+/− mice; experiment: Nissl staining, neuron density in 3×TG+/− mice; conditions: 12-15 months old 3×TG+/− mice, 3.2 mg/kg/day for one month; vs DMSO
Protocol: as §1
For the Nissl staining, paraffin-embedded brain tissue sections (5 μm) were immersed in xylene (5 min, 2 times), rehydrated in absolute ethanol (5 min, 2 times) followed by 95%, 75% and 50% solutions of ethanol in water (5 min each), then washed in distilled water for 2 times, 5 min each. […]

Compound: COc1ccccc1OCCNC[C@@H](O)COc1cccc2[nH]c3ccccc3c12 [R-carvedilol, R-(+)-carvedilol]
- LTP impairment ([1]; 3.2 mg/kg/day for one month started at 2-3 months of age (before AD symptoms), slices at 3-4 months): prevented
- LTP impairment ([1]; 3.2 mg/kg/day for one month started at 3-4 months of age (after AD symptom), slices at 4-5 months): rescued
- reduced basal synaptic transmission (fEPSP slope vs stimulus intensity) ([1]; 5×FAD+/− hippocampal brain slices, 3-4, 4-5 and 6-7 months old treated mice): restored
- LTP deficit ([1]; 6-7 months old 5×FAD+/− mice after 1-month treatment with 3.2 mg/kg/day): rescues
- area of Aβ plaques in the hippocampal region [2]: no significant difference
- number of Aβ plaques in the hippocampal region [2]: no significant difference
- density of neurons in the hippocampal CA1 region [3]: no significant difference
- density of neurons in the subiculum area [3]: significantly higher
